The values below come from patent publication US7541363B2, “Microcrystal” (Kyowa Hakko Kirin Co., Ltd., priority 2003, dated 2009).

The conditions of data set [1]: double bond (vinylene) moiety apt to be isomerized; cited from earlier work.
In another data set the test system is adenosine A2 receptor. As to conditions: cited from earlier work.
Data set [2] can be described thus: Crystallinity by powder X-ray diffraction. The format is physicochemical. The source says: Although there is no particular limitation for the “microcrystal(s) of (E)-8-(3,4-dimethoxystyryl)-1,3-diethyl-7-methyl-3,7-dihydro-1H-purine-2,6-dione having an average particle size of less than 50 μm” (that is “microcrystal(s) of Compound 1”) of the present invention so far as it is the crystalline Compound 1 having an average particle size of less than 50 μm, among them microcrystal(s) having an average particle size of 0.5 to 20 μm is/are preferable. The “microcrystal(s) of Compound 1” having a crystallinity of 20% or more is/are more preferable. Among them, the “microcrystal(s) of Compound 1” having a crystallinity of 30% or more is/are still more preferable and the “microcrystal(s) of Compound 1” having a crystallinity of 40% or more is/are most preferable. Incidentally, the average particle size thereof can be measured by using, for example, a laser diffraction/scattering particle size distribution analyzer (e.g., Mastersizer 2000, Ver. 2.00J; manufactured by Malvern Instruments), an image analyzer (e.g., Luzex® AP; manufactured by Nileco) or the like, and can be calculated as the mean of the particle size distribution. The crystallinity thereof can be calculated by measuring the integral intensity of the diffraction peak at a specific angle of diffraction 2θ by using a powder X-ray diffractmeter (e.g., JDX 8030; manufactured by Nippon Denshi).
The crystallinity of Compound 1 in each Sample (hereinafter, may be just referred to as the crystallinity) was calculated by the following method after measuring the diffraction peak of each Sample by changing from 0° to 40° at the angle of diffraction 2θ by a powder X-ray diffractmeter.
A calibration curve used for the calculation of the relative crystallinity was prepared by measuring the integral intensity of the diffraction peak at angle of diffraction 2θ=about 16° using physical mixtures prepared in various ratios and then plotting the ratios of amounts of the “crystalline Compound 1” in the physical mixtures against the integral intensities of the diffraction peaks respectively.
An integral intensity of the diffraction peak of the sample at the angle of diffraction 2θ=about 16° was measured. An amount of the “crystalline Compound 1” in each sample was calculated from the measured integral intensity on the basis of the above-described calibration curve, and the relative crystallinity (%) of each sample was determined from the following formula as the ratio of the amount of “Compound 1” (“crystalline Compound 1” and “an amorphous Compound 1”) against the amount of the “crystalline Compound 1”. A crystallinity (%) was determined by a proportional calculation from the relative crystallinity (%) determined hereinabove and the crystallinity (87.2%) of the unpulverized “crystals of Compound 1”. Relative Crystallinity (%)=(Amount of the “crystalline Compound 1”/Amount of “Compound 1”)×100 <Method for Measurement of Photostability>

Data set [3] in a line: Comparison of absorption in oral administration (plasma concentration). The format is in vivo, male rats of SD strain. Conditions: male SD rats; for Cmax (maximum concentration in plasma): 0.3 mg/mL suspension in 0.5 w/v % methyl cellulose at 10 mL/kg, mean ± s.e.m., three rats. How it is done:
Each of Crystal B (the average particle size of crystals: 181 μm) and Microcrystals B (the average particle size of crystals: 11 μm) obtained in Example 3 was suspended in a 0.5 w/v % aqueous solution of methyl cellulose to prepare a drug liquid (0.3 mg/mL) for administration. The resulting drug liquid was orally administered to male rats of SD strain (body weight: 209 to 233 g; Nippon Charles River) at the dose of 10 mL/kg. Blood of the rat (about 0.3 mL for each time) was sequentially collected from tail vein by using a heparin-treated capillary tube 0.25, 0.5, 1, 2, 4, 6, 8, 12 and 24 hour(s) after the administration. The resulting blood was centrifuged (1,950×g, 10 minutes, 4° C.) and plasma was separated. Concentration of “Compound 1” in the resulting plasma was measured by HPLC and mean value from three rats was calculated. Maximum concentration in plasma (Cmax), the area under the plasma curve of concentration-time curve between the administration and the point which can be determined quantitatively finally (AUC0-t) and the area under the plasma curve of concentration-time curve between the administration and infinitive time (AUC0-∞), of case in which each of Crystals B and Microcrystals B were orally administered to the rat, are shown in Table 2. Incidentally, conditions for the measurement by HPLC are as follows. Instrument for analysis: Series L-7000 (manufactured by Hitachi) Column: Ultron VX-ODS (φ4.6×150 mm) Column temperature: 30° C. Mobile phase: 10 mmol/L acetate buffer (pH 5.7)/acetonitrile=53/47 […] Detecting condition: UV 360 nm

The nature of data set [4]: Solubility in water at room temperature against elapsed time. The format is physicochemical. Conditions: 2 mg in water (200 mL) at room temperature. As for the experimental part: By using Crystals A (the average particle size of crystals: 167 μm, 2 mg) and Microcrystals A (the particle size of microcrystals D100=8.7 μm, 2 mg) obtained in Example 2, the solubility of each of them in water (200 mL) at room temperature was measured.

The nature of data set [5]: Aggregation and dispersing property during steps for preparing pharmaceutical formulation. The format is physicochemical.
For data set [6] the following is noted: crystals synthesized by the prior-art process; cited from earlier work.
A short description of data set [7]: Photostability: residual ratio of Compound 1 after irradiation under a fluorescent lamp. The format is physicochemical. Conditions: no HPMC, unpulverized; about 5,000 lx fluorescent lamp, 8 hours. How it is done:
Photostability of each sample was traced by measuring the residual ratio (%) of “Compound 1” in the sample according to the following method.
Transparent glass vials, in which the samples were weighed and filled, were stored at about 5,000 lx under a fluorescent lamp, and each sample was sampled 8 hours after the irradiation. The sampled sample was dissolved in a mixed solvent of water and acetonitrile (water:acetonitrile=60:40), and then the amount of “Compound 1” in the sample was determined quantitatively by using a high-performance liquid chromatography (HPLC). Amount of “Compound 1” before irradiation was defined as 100% and the amount of “Compound 1” after irradiation thereto was calculated as the residual ratio (%).
Conditions for the measurement by HPLC are as follows.
Instrument for analysis: Series LC-6 (manufactured by Shimadzu)
Column: Inertsil ODS-2 (φ6×150 mm)
Column temperature: 25° C.
Mobile phase: 50 mmol/L KH2PO4 (pH 6.1, KOH)/acetonitrile=60/40
Detecting condition: UV 248 nm

The mark [8] stands for this setting: drug substance crystals as obtained.

As for `CCn1c(=O)c2c(nc(/C=C/c3ccc(OC)c(OC)c3)n2C)n(CC)c1=O` [Compound 1, (E)-8-(3,4-dimethoxystyryl)-1,3-diethyl-7-methyl-3,7-dihydro-1H-purine-2,6-dione], the stability under light result in data set [1] is on record as “unstable particularly under light”. Besides, the “adenosine A2 receptor antagonistic activity” value in the data set with adenosine A2 receptor was “shows an adenosine A2 receptor antagonistic activity”.
`CCn1c(=O)c2c(nc(/C=C/c3ccc(OC)c(OC)c3)n2C)n(CC)c1=O` [Crystals B, (E)-8-(3,4-dimethoxystyryl)-1,3-diethyl-7-methyl-3,7-dihydro-1H-purine-2,6-dione]: in data set [2] (setting [8]), the crystallinity was 71.6%. Besides, the “Cmax (maximum concentration in plasma)” value in data set [3] came to 72.6 ± 31.7 ng/mL.
`CCn1c(=O)c2c(nc(/C=C/c3ccc(OC)c(OC)c3)n2C)n(CC)c1=O` [Microcrystals A, (E)-8-(3,4-dimethoxystyryl)-1,3-diethyl-7-methyl-3,7-dihydro-1H-purine-2,6-dione]: the crystallinity in data set [2] (setting [8]) turned out to be 84.6%. Also, in data set [4], the “solubility of Compound 1” value is “good solubility”. The dissolving velocity entry in data set [4] (compared with Crystals A) is on record as “quick dissolving velocity as compared to Crystals A”. In addition, the “aggregation of the crystals during steps for preparing pharmaceutical formulation” value in data set [5] was “no phenomenon of aggregation”. The dispersing property entry in data set [5] (compared with Crystals A) was “excellent dispersing property as compared to Crystals A”.
In data set [2] (setting [8]), `CCn1c(=O)c2c(nc(/C=C/c3ccc(OC)c(OC)c3)n2C)n(CC)c1=O` [Microcrystals B, (E)-8-(3,4-dimethoxystyryl)-1,3-diethyl-7-methyl-3,7-dihydro-1H-purine-2,6-dione] yielded a crystallinity of 67.3%. Moreover, the “Cmax (maximum concentration in plasma)” value in data set [3] was 238 ± 4 ng/mL. Besides, in data set [3] (compared with Crystals B), the “absorption in oral administration” value is listed as “better absorption in oral administration than Crystals B”.
For `CCn1c(=O)c2c(nc(/C=C/c3ccc(OC)c(OC)c3)n2C)n(CC)c1=O` [Unpulverized “Crystals of Compound 1”, (E)-8-(3,4-dimethoxystyryl)-1,3-diethyl-7-methyl-3,7-dihydro-1H-purine-2,6-dione], the crystallinity is recorded as 87.2% in data set [2] (setting [8]) and 87.2% in data set [2] (no HPMC, unpulverized). Further, the solubility in water entry in data set [6] is given as “low”. The “Residual Rate of “Compound 1”” value in data set [7] is listed as 100.0%.
